{"source": "the Kinase Knowledgebase extract (Sharma et al. 2016)", "data": [{"biological_target": "EGFR (human) (UniProt P00533)", "sequence (P00533 whole entry, looked up)": "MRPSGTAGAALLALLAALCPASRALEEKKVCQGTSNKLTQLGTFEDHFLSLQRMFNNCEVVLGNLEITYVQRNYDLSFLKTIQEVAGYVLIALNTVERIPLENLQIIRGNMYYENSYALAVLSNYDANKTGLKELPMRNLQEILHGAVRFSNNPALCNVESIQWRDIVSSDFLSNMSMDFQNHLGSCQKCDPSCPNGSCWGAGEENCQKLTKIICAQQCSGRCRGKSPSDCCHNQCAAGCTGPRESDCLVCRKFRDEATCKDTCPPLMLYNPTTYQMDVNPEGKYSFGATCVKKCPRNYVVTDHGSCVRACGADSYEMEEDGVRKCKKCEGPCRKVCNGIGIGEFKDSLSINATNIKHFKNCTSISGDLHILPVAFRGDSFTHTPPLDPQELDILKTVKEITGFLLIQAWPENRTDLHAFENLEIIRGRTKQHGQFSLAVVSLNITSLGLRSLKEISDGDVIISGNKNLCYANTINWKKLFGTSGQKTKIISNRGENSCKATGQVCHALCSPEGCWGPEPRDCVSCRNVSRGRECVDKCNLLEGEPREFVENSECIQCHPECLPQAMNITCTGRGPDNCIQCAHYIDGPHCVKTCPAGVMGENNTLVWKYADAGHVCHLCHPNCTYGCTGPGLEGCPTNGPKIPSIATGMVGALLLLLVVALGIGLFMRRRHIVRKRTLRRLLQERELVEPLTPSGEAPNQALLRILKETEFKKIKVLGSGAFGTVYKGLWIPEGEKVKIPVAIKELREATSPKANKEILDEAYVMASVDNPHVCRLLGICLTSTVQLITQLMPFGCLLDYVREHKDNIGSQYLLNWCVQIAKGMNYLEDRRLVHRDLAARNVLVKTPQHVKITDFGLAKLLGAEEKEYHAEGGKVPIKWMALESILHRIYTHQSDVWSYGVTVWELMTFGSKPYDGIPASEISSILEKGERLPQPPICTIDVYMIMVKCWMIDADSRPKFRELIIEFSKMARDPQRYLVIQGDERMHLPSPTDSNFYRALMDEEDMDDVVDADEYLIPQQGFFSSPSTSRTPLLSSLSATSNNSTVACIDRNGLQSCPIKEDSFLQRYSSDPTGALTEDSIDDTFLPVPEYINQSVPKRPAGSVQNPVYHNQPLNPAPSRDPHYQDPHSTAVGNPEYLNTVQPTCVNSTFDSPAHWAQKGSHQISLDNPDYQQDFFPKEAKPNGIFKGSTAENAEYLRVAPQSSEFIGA", "conditions": "a431", "units": {"IC50": "µg/mL"}, "values": [{"molecule": "COc1cc2c(Nc3ccc4cn[nH]c4c3)c(C#N)cnc2cc1OCCCN1CCOCC1", "IC50": "> 5"}, {"molecule": "COc1cc2ncc(C#N)c(Nc3ccc(Sc4nc5ccccc5c(=O)[nH]4)c(Cl)c3)c2cc1[N+](=O)[O-]", "IC50": 2.28}, {"molecule": "COc1cc2ncc(C#N)c(Nc3ccc(N(Cc4cccnc4)C(C)=O)c(Cl)c3)c2cc1NC(C)=O", "IC50": 3.68}, {"molecule": "COc1cc2ncc(C#N)c(Nc3ccc(N(Cc4cccnc4)C(C)=O)c(Cl)c3)c2cc1[N+](=O)[O-]", "IC50": 1.6}, {"molecule": "CCOc1cc2ncc(C#N)c(Nc3ccc(Nc4nnc(C(F)(F)F)s4)c(Cl)c3)c2cc1NC(=O)/C=C/CN(C)C", "IC50": 0.728}, {"molecule": "COc1cc2ncc(C#N)c(Nc3ccc(Sc4nccn4C)c(Cl)c3)c2cc1NC(=O)/C=C/CN(C)C", "IC50": 0.02}, {"molecule": "COc1cc2ncc(C#N)c(Nc3ccc(N(Cc4cccnc4)C(C)=O)c(Cl)c3)c2cc1N", "IC50": "> 5"}, {"molecule": "CCOc1cc2ncc(C#N)c(Nc3ccc(Sc4nc(-c5ccccc5)cs4)c(C(F)(F)F)c3)c2cc1NC(=O)/C=C/CN(C)C", "IC50": 0.3}, {"molecule": "COc1cc2ncc(C#N)c(Nc3ccc(-n4ccnc4)c(Cl)c3)c2cc1N", "IC50": 1.63}, {"molecule": "CCOc1cc2ncc(C#N)c(Nc3ccc(Nc4nnc(C(F)(F)F)s4)c(Cl)c3)c2cc1[N+](=O)[O-]", "IC50": 1.79}]}]}
